Results reported in PubChem BioAssay (NCI).
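Grown in 96-well plates, cells were treated for 48 hours with each compound at five concentrations. Insufficient inhibition: endpoint recorded as highest concentration tested. GI50 = concentration required for 50% inhibition of growth. At the TGI there is no net growth.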

Experiments:
Experiment in all cases: NCI tumour cell line growth inhibition, 48 h
MDA-N = test system: MDA-N
DMS 114 small cell lung = test system: DMS 114 small cell lung
DMS 273 small cell lung = test system: DMS 273 small cell lung
HOP-18 NSCLC = test system: HOP-18 NSCLC
KM20L2 colon = test system: KM20L2 colon
LXFL 529 NSCLC = test system: LXFL 529 NSCLC
M19-MEL melanoma = test system: M19-MEL melanoma
RXF-631 renal = test system: RXF-631 renal
XF 498 CNS = test system: XF 498 CNS

Row | SMILES | TGI (MDA-N) [µM] | TGI (DMS 114 small cell lung) [µM] | TGI (DMS 273 small cell lung) [µM] | TGI (HOP-18 NSCLC) [µM] | TGI (KM20L2 colon) [µM] | TGI (LXFL 529 NSCLC) [µM] | TGI (M19-MEL melanoma) [µM] | TGI (RXF-631 renal) [µM] | TGI (XF 498 CNS) [µM] | GI50 (KM20L2 colon) [µM] | GI50 (LXFL 529 NSCLC) [µM] | GI50 (RXF-631 renal) [µM] | GI50 (XF 498 CNS) [µM]
1 | CCC(/C=C/c1ccccc1)=N\Nc1ccc(Cl)c(Cl)c1 | > 100 |  |  |  |  |  |  |  |  |  |  |  | 
2 | O=C1NC2C=CN(Cc3ccccc3)C=C2C(=O)N2CCCC12 (stereo not given) |  | > 100 | > 100 | > 100 | > 100 | > 100 | > 100 | > 100 | > 100 |  |  |  | 
3 | COc1ccc(/C=C2\CCC(CN(C)C)C2=O)cc1OC (stereo not given) |  | 34.3 | 29.8 | 35.1 | 32.3 | 6.7 | 24.4 | 16.3 | 26.3 |  |  |  | 
4 | O=C(Nc1nc(=S)c2c(ncn2CCO)[nH]1)c1ccccc1 |  | > 100 | > 100 | > 100 | > 100 | > 100 | > 100 |  | > 100 |  |  |  | 
5 | N#Cc1cc([N+](=O)[O-])ccc1NC(=O)/C(=N/N)C(C(=O)c1ccc(Cl)c(Cl)c1)C1OC(=O)c2ccccc21 (stereo not given) |  | > 100 |  |  |  | > 100 | > 100 |  |  |  |  |  | 
6 | C=CC1C(OC2OC(CO)C(O)C(O)C2O)OC=C(C(=O)OC)C1CC=O (stereo not given) |  |  |  | > 100 | > 100 | > 100 | > 100 | > 100 |  |  |  |  | 
7 | O=c1[nH]c(-c2ccc(-c3nc4cc([N+](=O)[O-])ccc4c(=O)[nH]3)cc2)nc2cc([N+](=O)[O-])ccc12 |  | > 100 | > 100 |  | > 100 | > 100 | > 100 | > 100 |  |  |  |  | 
8 | C/C=C/C=C/CCCCCCCCCCCCCC1(OC)C=CC(CC(=O)OC)OO1 (stereo not given) |  |  | 3.03 |  | 3.51 | 16.7 | 24.1 | 29.1 | 15.8 | 1.89 | 4.7 | 10.8 | 6.59
9 | C[C@@H](NC1CCC[C@H]1O)c1ccccc1 (stereo not given in full) |  | > 100 | > 100 | > 100 | > 100 | > 100 | > 100 |  | > 100 |  |  |  | 
10 | Nc1nc(N)c(N=O)c(OCC2CCCCC2)n1 | 67.4 |  |  |  |  |  |  |  |  |  |  |  | 
11 | CSC1(SC2=NCCN2)SC2(NCCN2)S1 | 49.1 |  |  |  |  |  |  |  |  |  |  |  | 
12 | CC(=O)NC1CC2Oc3ccc(C)cc3C(C)(O2)C1O (stereo not given) |  | > 100 | > 100 | > 100 |  |  | > 100 |  | > 100 |  |  |  | 
13 | CCOC(=O)C1=C(Nc2cccc3ccccc23)OC/C1=N\NC(=O)c1ccccc1O |  | 31.6 | > 61.1 | 83.7 | 90.8 | > 100 | > 100 | > 100 | 30.7 |  |  |  | 
14 | Clc1nc(Cl)c(-c2ccccc2)c(Cl)n1 | 6.67 |  |  |  |  |  |  |  |  |  |  |  | 
15 | O=C1CCC2(c3ccccc3)Nc3ncccc3N12 (stereo not given) |  | > 100 |  |  | > 100 | > 100 | > 100 |  | > 100 |  |  |  | 
16 | CC12CC(OC(=O)[C@]1(C)O)[C@@H]([C@]1(O)CC[C@H]3[C@@H]4C[C@H]5O[C@]56[C@@H](O)C=CC(=O)[C@]6(C)[C@H]4CC[C@@]31C)C2 (stereo not given in full) | 26.9 |  |  |  |  |  |  |  |  |  |  |  | 
17 | COc1cc(C)c(O)c(C(=O)O)c1 |  | > 100 | > 100 | > 100 | > 100 | > 100 | > 100 |  | > 100 |  |  |  | 
18 | O=C(CCc1cc(-c2ccccc2)nc(=S)[nH]1)Nc1ccccc1[N+](=O)[O-] |  | > 100 | > 100 | > 100 | > 100 | > 100 | > 100 | > 100 | 91.5 |  |  |  | 
19 | COC(=O)C1=C(O)c2cc3c(cc2[C@H](c2cc(OC)c(OC)c(OC)c2)C1C(=O)OC)OCO3 (stereo not given in full) |  | 68.8 | > 100 | 89.4 | > 100 | > 100 | > 100 | > 100 | 70 |  |  |  | 
